Measured values reported in paper PMC6271703, “Absorbability, Mechanism and Structure-Property Relationship of Three Phenolic Acids from the Flowers of Trollius chinensis” (Molecules, 2014).
Converted amounts (≈) assume the structure as drawn.

How the values were obtained:
[1] = Caco-2 cell monolayer transport experiment; type: in vitro ADME; details: human; for Papp A→B at 90 min, 100 μmol/L: incubation up to 90 min, n = 3
Description: To facilitate the cells’ differentiation and formation of a confluent monolayer, Caco-2 cells were seeded at a density of 1.0 × 10^5 cells/cm^2 on a 12-well Transwell insert filter. The inserts were fed with culture medium at 2 days intervals in the first week, and then at daily intervals for the AP side and 2 days intervals for the BL side until they were used for the transport experiment 21 days after seeding. The AP and BL sides contained 0.5 mL and 1.5 mL of culture medium, respectively. […] The cell inserts were used after the resistance reached above 600 Ω∙cm^2.
On day 21, transport study was initiated by careful removal of the culture medium from AP and BL sides. Caco-2 monolayers were rinsed twice with pre-warmed HBSS and were incubated by pre-warmed HBSS for 30 min at 37 °C. PA, GA and TS were dissolved in DMSO, and diluted to the concentration of 25, 50 and 100 μmol/L with HBSS. The final DMSO concentration was less than 1%. Test compounds were added to the AP side (0.5 mL) or BL side (1.5 mL) of the inserts, while the receiving chamber contained the corresponding volume of HBSS. […] At 30, 60, 90, 120, 150 and 180 min, 0.2 mL of solutions from BL side or AP side were collected, and replaced with an equal volume of HBSS. Samples were frozen immediately and stored below −20 °C before analysis. Upon completion of all permeation experiments, TEER values were measured to ensure that cell monolayer integrity and viability had not been adversely affected by experimental conditions.
(§1) The cell survival rate (%) was calculated using the equation survival rate= A/A0 × 100, wherein A was the average absorbance value of treatment group; A0 was the average absorbance value of the blank control group. The Papp was determined in this study by HPLC quantification of the compounds in the receiver chamber after transport across the Caco-2 monolayer. The calculation was described by the equation Papp = (dQ/dt) × (1/A) × (1/C0), wherein dQ/dt was the rate of appearance of the test compound on the receiver compartment (μmol/s); C0 was the initial test compound concentration on the donor compartment (μmol/mL); and A was the surface area of Caco-2 monolayer (cm^2).
The percentage transported (%) was calculated using the equation % Transported = QB/(CS × VD) × 100, wherein QB was the amount of compounds in the receiver compartment(μmol); CS was the donor concentration of test compounds (μmol/L); VD was the volume of the donor compartment (L). The transport rate (μmol/h/cm^2) was calculated using the equation transport rate = QB/(t × A), wherein QB was the amount of compounds in the receiver compartment(μmol); t was the incubating time (h); A was the surface area of Caco-2 monolayer (cm^2).

[2] = Caco-2 cell monolayer transport experiment; type: in vitro ADME; details: human; for Papp A→B at 90 min, 25 μmol/L / Papp B→A at 90 min, 25 μmol/L / Papp A→B at 90 min, 50 μmol/L / Papp B→A at 90 min, 50 μmol/L / Papp B→A at 90 min, 100 μmol/L / Papp A→B at 90 min / Papp B→A at 90 min: incubation up to 90 min; for Papp A→B at 90 min, 25 μmol/L / Papp B→A at 90 min, 25 μmol/L / Papp A→B at 90 min, 50 μmol/L / Papp B→A at 90 min, 50 μmol/L / Papp B→A at 90 min, 100 μmol/L: n = 3; for Papp A→B at 90 min / Papp B→A at 90 min: average of 25, 50 and 100 μmol/L; for Papp at 90 min: monitored for 90 min, read-out: bidirectional Papp level (AP to BL and BL to AP)
Caco-2 cells = test: MTT assay on Caco-2 cells; type: cell-based, human; details: for Survival Rate: 4 h, n = 4
Description: Caco-2 cells at logarithmic growth phase were seeded onto 96-well plates and incubated at 37 °C in culture hood. The culture medium was removed after cells formed a full layer, and each 100 μL of HBSS solution (negative control group) and drug-containing HBSS solution (three phenolic acids at the concentrations of 25, 50 and 100 μmol/L, respectively) was added to each well. When the plates were cultured for 4 h, HBSS solution was completely transferred out and each 100 μL of MTT solution (0.5 mg/mL) was added to each well. MTT solution was removed carefully after 4 hours of incubation at 37 °C, and each 150 μL of DMSO was added to each well, then culture vessels were agitated on an orbital shaker for 10 min and absorbance was read on a microplate reader at 570 nm.
as §1

influenza A = system: influenza A; design: method as in ref [7] = [7]; 7. Wang R.F. The Constituents and Bioactivities of Jinlianhua and Pangdahai Doctoral Thesis Peking University Bejing, China 2003; details: antiviral, ref [7]; cited from earlier work
Pseudomonas aeruginosa = system: Pseudomonas aeruginosa; design: method as in PMID 11849843; details: ref [4],[5]; cited from earlier work
Staphylococcus aureus = system: Staphylococcus aureus; design: method as in PMID 11849843; details: ref [4],[5]; cited from earlier work
Para 3 = system: Para 3; design: method as in ref [6] = [6]; 6. Li Q.F. Feng S.Q. Li Y.L. Cen Y.Z. Yang Y.T. Wang L.Y. Study on the antibacterial and antiviral activity compositions of Trollius chinensis Bunge J. Zhejiang Univ. (Sci. Ed.) 2004 31 412 415; details: antiviral, ref [6]; cited from earlier work
Streptococcus pneumonia = system: Streptococcus pneumonia; design: method as in ref [7] = [7]; 7. Wang R.F. The Constituents and Bioactivities of Jinlianhua and Pangdahai Doctoral Thesis Peking University Bejing, China 2003; details: ref [7]; cited from earlier work

| SMILES | Papp A→B at 90 min, 100 μmol/L [1] | Papp A→B at 90 min, 25 μmol/L [2] | Papp B→A at 90 min, 25 μmol/L [2] | Papp A→B at 90 min, 50 μmol/L [2] | Papp B→A at 90 min, 50 μmol/L [2] | Papp B→A at 90 min, 100 μmol/L [2] | Papp A→B at 90 min [2] | Papp B→A at 90 min [2] | Papp at 90 min [2] | Survival Rate (Caco-2 cells; 25 μmol/L) | Survival Rate (Caco-2 cells; 50 μmol/L) | Survival Rate (Caco-2 cells; 100 μmol/L) | IC50 (influenza A) | MIC (Pseudomonas aeruginosa) | MIC (Staphylococcus aureus) | IC50 (Para 3) | Survival rate of Caco-2 cells (Caco-2 cells; at different concentrations (25, 50, 100 μmol/L)) | MIC (Streptococcus pneumonia) | Papp at 180 min ([1]; standard markers added to the AP side, model validation, read-out: Papp of reference controls) |
| --- | --- | --- | --- | --- | --- | --- | --- | --- | --- | --- | --- | --- | --- | --- | --- | --- | --- | --- | --- |
| COc1cc(C(=O)O)cc2c1OC(C)(C)CC2 [GA, 8-methoxy-2,2-dimethylchroman-6-carboxylic acid] | 17 ± 1.2 ×10⁻⁶ cm/s | 21.4 ± 2 ×10⁻⁶ cm/s | 22.1 ± 0.8 ×10⁻⁶ cm/s | 15.9 ± 0.2 ×10⁻⁶ cm/s | 20 ± 0.7 ×10⁻⁶ cm/s | 19.4 ± 1 ×10⁻⁶ cm/s | 18.1 ± 1.1 ×10⁻⁶ cm/s | 20.5 ± 0.8 ×10⁻⁶ cm/s | ~10 ×10⁻⁶ cm/s | 107.1 ± 5.7% | 118.9 ± 13.7% | 123.6 ± 6.2% | 42.1 µg/mL (≈ 178 µM) | – | – | – | – | – | – |
| COc1cc(C(=O)O)cc(CC=C(C)C)c1O [PA, 4-hydroxy-3-methoxy-5-(3-methylbut-2-en-1-yl)benzoic acid] | 29.6 ± 1.1 ×10⁻⁶ cm/s | 31.7 ± 0.4 ×10⁻⁶ cm/s | 25.4 ± 2.2 ×10⁻⁶ cm/s | 28 ± 1.3 ×10⁻⁶ cm/s | 25.6 ± 1.9 ×10⁻⁶ cm/s | 25.9 ± 1.4 ×10⁻⁶ cm/s | 29.8 ± 1.3 ×10⁻⁶ cm/s | 25.6 ± 1.8 ×10⁻⁶ cm/s | ~10 ×10⁻⁶ cm/s | 118.8 ± 11.6% | 110.5 ± 3.8% | 124.5 ± 2.2% | – | 16 µg/mL (≈ 67.7 µM) | 200 µg/mL (≈ 846 µM) | 184.2 µg/mL (≈ 780 µM) | – | – | – |
| CC(=O)O[C@H]1C(=O)[C@@]2(C)[C@H]([C@H](OC(=O)c3ccccc3)[C@]3(O)C[C@H](OC(=O)[C@H](O)[C@@H](NC(=O)c4ccccc4)c4ccccc4)C(C)=C1C3(C)C)[C@]1(OC(C)=O)CO[C@@H]1C[C@@H]2O [Paclitaxel, reference compound] | – | – | – | – | – | – | – | – | – | 67.3 ± 8.2% | 45.5 ± 6.7% | 37.4 ± 3.5% | – | – | – | – | below 70% | – | – |
| COc1cc(C(=O)O)cc(CC=C(C)C)c1O[C@@H]1O[C@H](CO)[C@@H](O)[C@H](O)[C@H]1O [TS, 3-methoxy-5-(3-methylbut-2-en-1-yl)-4-(((2S,3R,4S,5S,6R)-3,4,5-trihydroxy-6-(hydroxymethyl)tetrahydro-2H-pyran-2-yl)oxy)benzoic acid] | 7.7 ± 0.9 ×10⁻⁶ cm/s | 8.6 ± 1.6 ×10⁻⁶ cm/s | 8.6 ± 0.4 ×10⁻⁶ cm/s | 10.6 ± 0.3 ×10⁻⁶ cm/s | 10.8 ± 0.6 ×10⁻⁶ cm/s | 8 ± 0.3 ×10⁻⁶ cm/s | 8.9 ± 0.9 ×10⁻⁶ cm/s | 9.1 ± 0.4 ×10⁻⁶ cm/s | ~10 ×10⁻⁶ cm/s | 98.9 ± 4.3% | 107.3 ± 7.0% | 118.2 ± 8.1% | – | – | – | – | – | 128 µg/mL (≈ 321 µM) | – |
| CC(C)NCC(O)COc1cccc2ccccc12 (stereo not shown) [propranolol, reference compound] | – | – | – | – | – | – | – | – | – | – | – | – | – | – | – | – | – | – | 12.4 ×10⁻⁶ cm/s |
